How the values were obtained:
velvetleaf [1] = experiment: Test C pre-/postemergence herbicide test; assay type: in vivo, Abutilon theophrasti; conditions: for Plant response rating, Velvetleaf: preemergence; for Velvetleaf plant response rating: Preemergence, scale 0 to 100, 0 no effect, 100 complete control
Procedure, shortened: (§1)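 Pre/post spray; non-phytotoxic solvent + surfactant. Post-timing 1–4 leaves, 2–18 cm. Read-out: visual % control vs untreated, day 12–14, greenhouse.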

large crabgrass = experiment: Test C pre-/postemergence herbicide test; assay type: in vivo, Digitaria sanguinalis; conditions: for Plant response rating, Crabgrass, Large / Plant response rating (0 = no effect, 100 = complete control), Crabgrass, Large: preemergence; for Crabgrass, Large plant response rating: Preemergence, scale 0 to 100, 0 no effect, 100 complete control
Procedure, shortened: as §1

velvetleaf [2] = experiment: Test A pre-/postemergence herbicide test; assay type: in vivo, Abutilon theophrasti
Procedure, shortened: (§2)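 Greenhouse injury scoring (0–100, complete control = 100) at approximately ten days follows simultaneous pre- and postemergence application. Soil received a directed spray after seeding; seedlings of 2–10 cm at the one- to two-leaf stage were sprayed to runoff.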

[3] = test system: common (oilseed) sunflower; experiment: Test C pre-/postemergence herbicide test; assay type: in vivo, Helianthus annuus; conditions: for Plant response rating, Sunflower / Plant response rating (0 = no effect, 100 = complete control), Sunflower: preemergence; for Sunflower plant response rating: Preemergence, scale 0 to 100, 0 no effect, 100 complete control
Procedure, shortened: as §1

giant foxtail = experiment: Test A pre-/postemergence herbicide test; assay type: in vivo, Setaria faberi
Procedure, shortened: as §2

cocklebur = experiment: Test C pre-/postemergence herbicide test; assay type: in vivo, Xanthium strumarium; conditions: for Plant response rating, Cocklebur / Plant response rating (0 = no effect, 100 = complete control), Cocklebur: preemergence; for Cocklebur plant response rating: Preemergence, 500 g ai/ha, scale 0 to 100, 0 no effect, 100 complete control
Procedure, shortened: as §1

rice = experiment: Test B pre-/postemergence herbicide test; assay type: in vivo, Oryza sativa; conditions: preemergence
Procedure, shortened: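 Seeds were planted and treated preemergence with compounds formulated in a non-phytotoxic solvent mixture containing surfactant, while plants at the 1- to 4-leaf stage (2 to 18 cm) received postemergence sprays. Flooded paddy plants were grown to the 2-leaf stage. After 13 to 15 days in a greenhouse, injury was visually rated 0–100 against untreated controls.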

pigweed = experiment: Test C pre-/postemergence herbicide test; assay type: in vivo, Amaranthus retroflexus; conditions: for Plant response rating, Pigweed / Plant response rating (0 = no effect, 100 = complete control), Pigweed: preemergence; for Pigweed plant response rating: Preemergence, scale 0 to 100, 0 no effect, 100 complete control
Procedure, shortened: as §1

[4] = 125 g ai/ha, scale 0 (no effect) to 100 (complete control), visual, 12 to 14 days
[5] = 250 g ai/ha, scale 0 to 100 (0 no effect, 100 complete control), visual, 12 to 14 days
[6] = Postemergence, 500 g ai/ha, 0 to 100 scale, 0 no effect, 100 complete control
[7] = Postemergence, 2000 g ai/ha, 0 to 100 scale, 0 no effect, 100 complete control
[8] = Preemergence, 2000 g ai/ha, visual rating, 0 to 100 scale (0 no effect, 100 complete control)
[9] = preemergence, 500 g ai/ha, visual injury, 0 to 100 scale (0 no effect, 100 complete control)
[10] = Preemergence, 500 g ai/ha, visual rating, 0 to 100 scale (0 no effect, 100 complete control)
[11] = 500 g ai/ha, visual rating 0-100, 0 no effect, 100 complete control
[12] = 125 g ai/ha, 0 to 100 scale, 0 is no effect, 100 is complete control
[13] = Preemergence, 2000 g ai/ha, 0 to 100 scale, 0 no effect, 100 complete control
[14] = 125 g ai/ha, 0 = no effect, 100 = complete control
[15] = 500 g ai/ha, visual rating, 0 = no effect, 100 = complete control
[16] = 500 g ai/ha, scale 0 to 100 (0 no effect, 100 complete control), visual, 12 to 14 days

Row | Structure (SMILES) | Plant response rating, Velvetleaf (velvetleaf [1]; 62 g ai/ha, scale 0 to 100) | Plant response rating, Velvetleaf (velvetleaf [1]; [4]) | Plant response rating, Crabgrass, Large (large crabgrass; 62 g ai/ha, scale 0 to 100) | Plant response rating, Crabgrass, Large (large crabgrass; [4]) | Plant response rating, Crabgrass, Large (large crabgrass; [5]) | Velvetleaf plant response rating (velvetleaf [2]; [6]) | Plant response rating, Velvetleaf (velvetleaf [2]; [7]) | Velvetleaf plant response rating (velvetleaf [2]; [8]) | Velvetleaf plant response rating (velvetleaf [2]; [9]) | Plant response rating, Sunflower ([3]; 62 g ai/ha, scale 0 to 100) | Plant response rating, Sunflower [3, 4] | Foxtail, Giant plant response rating (giant foxtail; [6]) | Plant response rating, Foxtail, Giant (giant foxtail; [7]) | Foxtail, Giant plant response rating (giant foxtail; [10]) | Foxtail, Giant plant response rating (giant foxtail; [8]) | Plant response rating, Cocklebur (cocklebur; 62 g ai/ha, scale 0 to 100) | Plant response rating, Cocklebur (cocklebur; [4]) | Cocklebur plant response rating (cocklebur) | Plant response rating, Rice (rice; [12]) | Plant response rating, Pigweed (pigweed; [4]) | other results
1 | CCN(CC)C(=O)c1ccnc(NC(=O)c2cc(C(C)(C)C)nn2CC)c1 [Compound 153] | 0 | 20 | 0 | 0 | 0 | 40 | 65 | 80 | 15 | 0 | 0 | 20 | 90 | 15 | 60 | 0 | 0 | 0 | 10 | 100 | Velvetleaf plant response rating (velvetleaf [1]; 500 g ai/ha): 100; Crabgrass, Large plant response rating (large crabgrass; 500 g ai/ha): 80; Sunflower plant response rating ([3]; 500 g ai/ha): 0; Plant response rating, Cocklebur (cocklebur; [5]): 0; Plant response rating, Rice (rice; [11]): 20; Plant response rating, Pigweed (pigweed; 62 g ai/ha, scale 0 to 100): 95; Pigweed plant response rating (pigweed; 500 g ai/ha): 100
2 | CCOC(=O)c1cc(NC(=O)c2cc(C(C)(C)C)nn2CC)ccc1OCC [Compound 95] | – | 60 | – | 100 | 100 | 45 | 50 | 80 | – | – | 0 | 20 | 50 | 70 | – | – | 5 | – | 30 | 100 | Plant response rating, Velvetleaf (velvetleaf [1]; 31 g ai/ha, scale 0 to 100): 0; Plant response rating, Crabgrass, Large (large crabgrass; 31 g ai/ha, scale 0 to 100): 10; Plant response rating (0 = no effect, 100 = complete control), Crabgrass, Large (large crabgrass; 62 g ai/ha): 80; Velvetleaf plant response rating (velvetleaf [2]; [10]): 50; Plant response rating, Sunflower ([3]; 31 g ai/ha, scale 0 to 100): 0; Plant response rating (0 = no effect, 100 = complete control), Sunflower ([3]; 62 g ai/ha): 0; Foxtail, Giant plant response rating (giant foxtail; [13]): 90; Plant response rating, Cocklebur (cocklebur; 31 g ai/ha, scale 0 to 100): 0; Plant response rating (0 = no effect, 100 = complete control), Cocklebur (cocklebur; 62 g ai/ha): 0; Plant response rating, Cocklebur (cocklebur; [5]): 10; Plant response rating, Rice (rice; [11]): 50; Plant response rating, Pigweed (pigweed; 31 g ai/ha, scale 0 to 100): 100; Plant response rating (0 = no effect, 100 = complete control), Pigweed (pigweed; 62 g ai/ha): 100
3 | CCn1nc(C(C)(C)C)cc1C(=O)Nc1cccc(C(=O)NCC(C)C)c1 [Compound 61] | – | 45 | – | 75 | 100 | – | 15 | 85 | – | – | 0 | – | 85 | 20 | – | – | 0 | 0 | 0 | 95 | Plant response rating, Velvetleaf (velvetleaf [1]; [5]): 80; Velvetleaf plant response rating (velvetleaf [1]; 500 g ai/ha): 100; Plant response rating (0 = no effect, 100 = complete control), Crabgrass, Large (large crabgrass; 62 g ai/ha): 50; Crabgrass, Large plant response rating (large crabgrass; 500 g ai/ha): 100; Velvetleaf plant response rating (velvetleaf [2]; [10]): 55; Plant response rating (0 = no effect, 100 = complete control), Sunflower ([3]; 62 g ai/ha): 0; Plant response rating, Sunflower [3, 5]: 0; Sunflower plant response rating ([3]; 500 g ai/ha): 0; Plant response rating, Foxtail, Giant (giant foxtail; [6]): 20; Foxtail, Giant plant response rating (giant foxtail; [13]): 75; Plant response rating (0 = no effect, 100 = complete control), Cocklebur (cocklebur; 62 g ai/ha): 0; Plant response rating (0 = no effect, 100 = complete control), Pigweed (pigweed; 62 g ai/ha): 0; Plant response rating, Pigweed (pigweed; [5]): 95; Pigweed plant response rating (pigweed; 500 g ai/ha): 95
4 | CCNC(=O)c1ccc(F)c(NC(=O)c2cc(C3(C)CC3)nn2CC)c1 [Compound 300] | 5 | – | 100 | 100 | – | 60 | 80 | 100 | 85 | 0 | – | 55 | 90 | – | 100 | 5 | 5 | – | – | 100 | Plant response rating, Velvetleaf (velvetleaf [1]; 250 g ai/ha, scale 0-100): 5; Plant response rating, Crabgrass, Large (large crabgrass; 250 g ai/ha, scale 0-100): 100; Plant response rating, Sunflower ([3]; 250 g ai/ha, scale 0-100): 5; Foxtail, Giant plant response rating (giant foxtail; [9]): 95; Plant response rating, Cocklebur (cocklebur; 250 g ai/ha, scale 0-100): 5; Rice plant response rating (0 to 100 scale) (rice; [14]): 40; Plant response rating, Rice (rice; [15]): 70; Plant response rating, Pigweed (pigweed; 62 g ai/ha, scale 0 to 100): 100; Plant response rating, Pigweed (pigweed; 250 g ai/ha, scale 0-100): 100
5 | CCNC(=O)c1ccc(F)c(NC(=O)C2CC(C(C)(C)C)=NN2CC)c1 (racemic) [Compound 269] | 5 | – | 95 | 100 | – | 25 | 30 | 100 | 40 | 0 | – | 35 | 65 | – | 100 | 0 | 0 | 50 | – | 100 | Plant response rating, Velvetleaf (velvetleaf [1]; 250 g ai/ha, scale 0-100): 75; Plant response rating, Velvetleaf (velvetleaf [1]; [16]): 80; Plant response rating, Crabgrass, Large (large crabgrass; 250 g ai/ha, scale 0-100): 100; Plant response rating, Crabgrass, Large (large crabgrass; [16]): 100; Plant response rating, Sunflower ([3]; 250 g ai/ha, scale 0-100): 5; Plant response rating, Sunflower [3, 16]: 15; Foxtail, Giant plant response rating (giant foxtail; [9]): 100; Plant response rating, Cocklebur (cocklebur; 250 g ai/ha, scale 0-100): 5; Rice plant response rating (0 to 100 scale) (rice; [14]): 70; Plant response rating, Rice (rice; [15]): 90; Plant response rating, Pigweed (pigweed; 62 g ai/ha, scale 0 to 100): 100; Plant response rating, Pigweed (pigweed; 250 g ai/ha, scale 0-100): 100; Plant response rating, Pigweed (pigweed; [16]): 100

From patent US20060069132A1, “Azolecarboxamide herbicides” (priority 2004, published 2006)
